Where two headings read alike, the source gives them in different places.
Columns and labels:
[1] = molecular target: T1, human histamine H3 receptor (Homo sapiens, UniProt Q9Y5N1); experiment: cell-based
Method: (§1) The transfected cells were selected for neomycin resistance (1 mg/ml; for H3 receptor) and hygromycin resistance (200 μg/ml; for CRE-SPAP reporter gene) for 3 weeks and passaged twice during in this period. A single clone was then isolated by dilution cloning to give a clonal line (CHO-H3-SPAP cells). The parent cell CRE-SPAP was also used for control experiments (CHO-SPAP cells).
(§2) Cells were grown to confluence in 96-well tissue culture plates. The cells were then serum starved by removing the media and replacing it with 100 μl serum free media (DMEM/F12 containing 2 mM L-glutamine). […] Where used, pertussis toxin, at a final concentration of 100 ng/ml was added to the serum-free media and thus incubated with the cells for 24 hours. On the day of experimentation, the serum-free media was removed and replaced with 100 μl serum-free media or 100 μl serum-free media containing an antagonist at the final required concentration and the cells incubated for 1 hour. Agonist in 10 μl (diluted in serum free media) was then added to each well and the cells incubated for 10 minutes. Forskolin was then added to all but the basal wells to give a final well concentration of 4 μM and the plates incubated for 5 hours. After 5 hours, the media and all drugs were removed. […] The plates were then incubated at 65°C for 30 minutes to destroy any endogenous phosphatases. After cooling to 37°C, 100 μl 5 mM pNPP in diethanolamine buffer was added to each well and the plates incubated at 37°C in a normal atmosphere until the yellow colour developed.
(§3) Sigmoidal concentration-response curves were fitted to the data using Graphpad Prism 2 and the following equation:
(§4) Antagonist KD values were then calculated from the shift of the agonist concentration responses in the presence of a fixed concentration of antagonist using the following equation:
(§5) where DR (dose ratio) is the ratio of the agonist concentration required to stimulate an identical response in the presence and absence of a fixed concentration of antagonist [B].
(§6) In experiments where three different fixed concentrations of the same antagonist were used, Schild plots were constructed using the following equation:
Log (DR-1) = log [B] - log (KD)
(§7) These points were then fitted to a straight line.
(§8) Partial agonist dissociation constants were therefore estimated according to the method of Stephenson [35] using the following equation:
(§9) KD partial agonist=X.[P]/1−Xwhere X=[A2]−[A1]/[A3]

[2] = molecular target: T1, human histamine H3 receptor; experiment: CRE-SPAP gene transcription in forskolin-stimulated CHO-H3-SPAP cells; details: for Kd / pKD values / Schild slope: CRE-SPAP; for agonist character in CRE-SPAP screen: inhibition of forskolin-stimulated CRE-SPAP production; for Schild slope: 3 antagonist concentrations; for pIC50, CRE-SPAP: agonism, inhibition of 4 μM forskolin-stimulated CRE-SPAP production
Method: as §1, §2, §3, §4, §5, §6
Log (DR-1) = log [B] - log (KD)
as §7, §8, §9

[3] = molecular target: T1, human histamine H3 receptor; experiment: 3H-cAMP accumulation in forskolin-stimulated CHO-H3-SPAP cells; format: cell-based; design: secondarily transfected with the full length human histamine H3 receptor; host or cells: CHO-K1 cells with CRE-SPAP reporter (clonal line CHO-H3-SPAP); details: for intrinsic activity response in 3H-cAMP accumulation: n = 4
Method: Cells were grown to confluence in 24-well plates. The media was removed and the cells pre-labelled with ^3H-adenine by incubation with 2 μCi/ml ^3H-adenine in serum-free media (0.5 ml per well) for 3 hours. The ^3H-adenine was then removed and the cells washed by the addition then removal of 1 ml serum-free media. […] Forskolin (final concentration of 10 μM) was then added to all but the basal wells and the plates incubated for 30 minutes. The reaction was terminated by the addition of 50 μl concentrated HCl per well and the plates were then frozen. Later, the plates were thawed and ^3H-cAMP separated from other ^3H-nucleotides by sequential Dowex and alumina column chromatography, as previously described.
When the intrinsic efficacy of the antagonist ligands was examined, the antagonists were incubated for 5 hours at 37°C in order to maximise the chance of detecting any changes in ^3H-cAMP accumulation.
Response=Emax×[A]/IC50+[A]

CHO-SPAP cells = experiment: CRE-SPAP gene transcription in parent CHO-SPAP cells (without the H3 receptor); format: cell-based, Chinese hamster; details: for IC50: Cricetulus griseus, CHO-SPAP cells (without the receptor), read-out: pIC50, CRE-SPAP, low potency component (converted)
Method: The response to all ligand used in this study was examined in the parent CHO-SPAP cells (expressing the reporter but not the human H3 receptor). Full 7-point concentration response curves were constructed, in the presence and absence of 4 μM forskolin. […].

CHO-H3-SPAP cells = experiment: Trypan blue uptake in CHO-H3-SPAP cells; details: 5 hours incubation
[4] = molecular target: T1, human histamine H3 receptor
Method: as §1, §2, §3, §4, §5, §6
Log (DR-1) = log [B] - log (KD)
as §7, §8, §9

[5] = Log KD values, agonist N-α-methylhistamine
[6] = Log KD values, agonist R-α-methylhistamine
[7] = Log KD values, agonist S-α-methylhistamine
[8] = Log KD values, agonist VUF 8430
[9] = Log KD values, agonist histamine
[10] = Log KD values, agonist immethridine
[11] = Log KD values, agonist impentamine (first component of the response)
[12] = Log KD values, agonist proxyfan
[13] = agonism, inhibition of 10 μM forskolin-stimulated 3H-cAMP accumulation, CHO-H3-SPAP cells, read-out: pIC50, 3H-cAMP accumulation (converted)
[14] = agonism, inhibition of 10 μM forskolin-stimulated 3H-cAMP accumulation, CHO-H3-SPAP cells

T1 sequence (Q9Y5N1 whole entry): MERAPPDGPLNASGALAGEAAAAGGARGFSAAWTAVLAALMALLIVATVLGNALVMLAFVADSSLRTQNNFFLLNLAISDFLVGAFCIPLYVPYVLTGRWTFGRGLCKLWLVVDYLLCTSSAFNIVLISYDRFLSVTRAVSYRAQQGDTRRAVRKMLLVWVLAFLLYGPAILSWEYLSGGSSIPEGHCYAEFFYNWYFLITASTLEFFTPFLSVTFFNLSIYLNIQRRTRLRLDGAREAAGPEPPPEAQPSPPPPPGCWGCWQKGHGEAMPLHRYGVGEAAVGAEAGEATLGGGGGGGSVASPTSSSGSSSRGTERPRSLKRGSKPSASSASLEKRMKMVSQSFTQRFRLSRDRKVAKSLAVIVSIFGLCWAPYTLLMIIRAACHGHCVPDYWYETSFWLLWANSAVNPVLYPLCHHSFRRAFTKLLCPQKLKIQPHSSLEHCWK

## CN(C)CCC(c1ccc(Cl)cc1)c1ccccn1 (centres unmarked) [chlorpheniramine]
[1]
  Kd: 2570 nM
[2]; [5]
  Kd: 3090 nM
[2]; [6]
  Kd: 3630 nM
[2]; [7]
  Kd: 3630 nM
[2]; [8]
  Kd: 7410 nM
[2]; [9]
  Kd: 4790 nM
[2]; Log KD values, agonist imetit
  Kd: 2630 nM
[2]; [10]
  Kd: 2950 nM
[2]; [11]
  Kd: 6170 nM
[2]; [12]
  Kd: 4070 nM
[3]; 5 hours incubation with ligand
  intrinsic activity response in 3H-cAMP accumulation: No responses

## Cc1nc[nH]c1CCN [4-methylhistamine]
[2]
  IC50: 11500 nM

## c1cc(Cc2cnc[nH]2)ccn1 [immethridine]
[2]
  IC50: 0.389 nM
[3]
  IC50: 0.174 nM

## NCCCCCc1cnc[nH]1 [impentamine]
CHO-SPAP cells; with forskolin
  IC50: 4680 nM
CHO-SPAP cells; without forskolin
  IC50: 3890 nM
[2]; CHO-H3-SPAP cells
  agonist character in CRE-SPAP screen: partial agonist actions
[2]; pIC50, CRE-SPAP, low potency component, CHO-H3-SPAP cells, absence of forskolin, with PTX pre-incubation
  IC50: 5130 nM
[2]; pIC50, CRE-SPAP, low potency component, CHO-H3-SPAP cells, absence of forskolin, without PTX pre-incubation
  IC50: 6610 nM
[2]; pIC50, CRE-SPAP, second component remaining after PTX, forskolin-stimulated CHO-H3-SPAP cells, 24 hours pre-incubation with PTX
  IC50: 6030 nM
[2]; pIC50 Site 1, CRE-SPAP, first component of two-component response, forskolin-stimulated CHO-H3-SPAP cells
  IC50: 25.7 nM
[2]; second component of two-component response, forskolin-stimulated CHO-H3-SPAP cells
  pIC50 Site 2, CRE-SPAP: Site 2 5.40 ± 0.05
CHO-H3-SPAP cells
  intracellular uptake of trypan blue: did not show any intracellular uptake of trypan blue
[3]; read-out: pIC50, 3H-cAMP accumulation (converted)
  IC50: 3.72 nM

## c1cc(CN2CCCCC2)cc(OCCCNc2nc3ccccc3s2)c1 [zolatidine]
[2]; agonist N-α-methylhistamine
  pKD values: 6.46 ± 0.07
  Schild slope: 1.10 ± 0.12
[2]; agonist R-α-methylhistamine
  pKD values: 6.52 ± 0.06
  Schild slope: 1.04 ± 0.04
[2]; agonist S-α-methylhistamine
  pKD values: 6.54 ± 0.07
  Schild slope: 1.10 ± 0.07
[2]; agonist VUF 8430
  pKD values: 6.38 ± 0.10
[2]; agonist histamine
  pKD values: 6.51 ± 0.07
  Schild slope: 1.01 ± 0.04
[2]; agonist imetit
  pKD values: 6.62 ± 0.08
  Schild slope: 1.17 ± 0.05
[2]; agonist immepip
  Schild slope: 1.18 ± 0.08
[2]; agonist immethridine
  pKD values: 6.66 ± 0.05
  Schild slope: 0.96 ± 0.02
[2]; agonist impentamine (first component of the response)
  pKD values: 6.52 ± 0.10
[2]; agonist proxyfan
  pKD values: 6.78 ± 0.06
  Schild slope: 0.91 ± 0.11
[4]
  Kd: 282 nM
[3]; 5 hours incubation with ligand
  intrinsic activity response in 3H-cAMP accumulation: No responses

## Br.Br.c1nc(CCCC2CCNCC2)c[nH]1 [VUF 5681, 4-[3-(1H-imidazol-4-yl)propyl]piperidine dihydrobromide]
[1]
  Kd: 19.1 nM
CHO-SPAP cells; presence and absence of 4 μM forskolin, up to 100 μM (10 μM for zolatidine, conessine, iodophenpropit, clobenpropit, clemastine)
  CRE-SPAP response in parent CHO-SPAP cells: A small decrease from maximum was seen only at the highest concentration (100 μM)
[2]
  IC50: 25.1 nM
[2]; [5]
  Kd: 11.2 nM
[2]; [6]
  Kd: 25.1 nM
[2]; [7]
  Kd: 17.8 nM
[2]; [8]
  Kd: 19.5 nM
[2]; [9]
  Kd: 17 nM
[2]; Log KD values, agonist imetit
  Kd: 14.1 nM
[2]; [10]
  Kd: 16.2 nM
[2]; [12]
  Kd: 15.8 nM
[2]; CHO-H3-SPAP cells
  agonist character in CRE-SPAP screen: agonist properties
[3]; [13]
  IC50: 3.89 nM
[3]; pIC50, 3H-cAMP accumulation, 5 hours incubation, partial agonist response, 5 hours incubation with ligand
  IC50: 3.8 nM

## S=C(NC1CCCCC1)N1CCC(c2cnc[nH]2)CC1 [thioperamide]
[2]; agonist N-α-methylhistamine
  Schild slope: 0.98 ± 0.07
[2]; agonist R-α-methylhistamine
  Schild slope: 1.00 ± 0.05
[2]; agonist S-α-methylhistamine
  Schild slope: 1.01 ± 0.08
[2]; agonist histamine
  Schild slope: 1.01 ± 0.03
[2]; agonist imetit
  Schild slope: 1.02 ± 0.07
[2]; agonist immepip
  Schild slope: 1.06 ± 0.02
[2]; agonist immethridine
  Schild slope: 1.08 ± 0.04
[2]; agonist proxyfan
  Schild slope: 1.02 ± 0.03
[3]; 5 hours incubation with ligand
  inverse agonist response, 3H-cAMP accumulation: 106.3 ± 2.6 % basal

## CNCCc1cnc[nH]1 [N-α-methylhistamine]
[2]; CHO-H3-SPAP cells
  pIC50, CRE-SPAP: 8.89 ± 0.04
[3]; [14]
  pIC50, 3H-cAMP accumulation: 9.45 ± 0.05

## NC(=NCc1ccc(Cl)cc1)SCCCc1cnc[nH]1 [clobenpropit]
[2]; agonist N-α-methylhistamine
  Schild slope: 1.08 ± 0.07
[2]; agonist R-α-methylhistamine
  Schild slope: 1.10 ± 0.06
[2]; agonist S-α-methylhistamine
  Schild slope: 1.09 ± 0.04
[2]; agonist histamine
  Schild slope: 0.98 ± 0.03
[2]; agonist imetit
  Schild slope: 1.02 ± 0.04
[2]; agonist immepip
  Schild slope: 1.05 ± 0.02
[2]; agonist immethridine
  Schild slope: 1.02 ± 0.04
[3]; 5 hours incubation with ligand
  intrinsic activity response in 3H-cAMP accumulation: No responses

## CC(CCCCC(=O)Nc1ccc(C(F)(F)F)cc1)NCCc1cnc[nH]1 (centres unmarked) [HTMT, histamine trifluoromethyl toluidide]
[2]; CHO-H3-SPAP cells
  pIC50, CRE-SPAP: 5.21 ± 0.18

## c1nc(CC2CCNCC2)c[nH]1 [immepip]
[2]
  IC50: 0.224 nM
[3]
  IC50: 0.0501 nM

## CNC(=S)NCCCCc1cnc[nH]1 [burimamide]
[2]
  IC50: 427 nM
[2]; CHO-H3-SPAP cells
  agonist character in CRE-SPAP screen: partial agonist actions
[3]; [13]
  IC50: 224 nM

## Cn1cncc1CCN [3-methylhistamine]
[2]
  IC50: 13500 nM

## CN(C)CCCSC(=N)N [dimaprit]
[2]
  IC50: 2570 nM

## Cc1ccc(/C(=C\CN2CCCC2)c2ccccn2)cc1 [triprolidine]
[1]
  Kd: 2450 nM
[2]; [5]
  Kd: 4570 nM
[2]; [6]
  Kd: 2630 nM
[2]; [7]
  Kd: 3390 nM
[2]; [8]
  Kd: 5500 nM
[2]; [9]
  Kd: 4470 nM
[2]; Log KD values, agonist imetit
  Kd: 3720 nM
[2]; [10]
  Kd: 2950 nM
[2]; [11]
  Kd: 2240 nM
[2]; [12]
  Kd: 5890 nM
[3]; 5 hours incubation with ligand
  intrinsic activity response in 3H-cAMP accumulation: No responses

## Cn1cnc(CCN)c1 [1-methylhistamine]
[2]
  IC50: 20000 nM

## N=C(N)SCCc1cnc[nH]1 [imetit]
[2]
  IC50: 0.437 nM
[3]
  IC50: 0.123 nM

## Cc1nc(N)sc1CCN [amthamine]
[2]
  IC50: 13500 nM

## Br.Br.N=C(N)NCCSC(=N)N [VUF 8430, 2-[(aminoiminmethyl)amino]ethyl carbamimidothioic acid ester dihydrobromide]
[2]; CHO-H3-SPAP cells
  pIC50, CRE-SPAP: 5.66 ± 0.08
[3]; [14]
  pIC50, 3H-cAMP accumulation: 6.38 ± 0.07

## c1ccc(COCCCc2c[nH]cn2)cc1 [proxyfan]
[2]
  IC50: 16.2 nM
[3]; [13]
  IC50: 4.9 nM

## CC(C1=C(CCN(C)C)Cc2ccccc21)c1ccccn1 (centres unmarked) [dimethindine, dimethindene]
[1]
  Kd: 1910 nM
[2]; [5]
  Kd: 2140 nM
[2]; [6]
  Kd: 2240 nM
[2]; [7]
  Kd: 2140 nM
[2]; [8]
  Kd: 7760 nM
[2]; [9]
  Kd: 2340 nM
[2]; Log KD values, agonist imetit
  Kd: 2510 nM
[2]; [10]
  Kd: 4170 nM
[2]; [11]
  Kd: 2570 nM
[2]; [12]
  Kd: 5750 nM
[3]; 5 hours incubation with ligand
  intrinsic activity response in 3H-cAMP accumulation: No responses

## NCCc1ccccn1 [2-pyridylethylamine]
[2]
  IC50: > 100000 nM

## C[C@H]1[C@H]2CC[C@H]3[C@@H]4CC=C5C[C@@H](N(C)C)CC[C@]5(C)[C@H]4CC[C@]23CN1C [conessine]
[1]
  Kd: 8.13 nM
[2]; agonist N-α-methylhistamine
  Schild slope: 0.98 ± 0.05
[2]; agonist R-α-methylhistamine
  Schild slope: 1.00 ± 0.06
[2]; agonist S-α-methylhistamine
  Schild slope: 1.08 ± 0.04
[2]; agonist histamine
  Schild slope: 1.07 ± 0.03
[2]; agonist imetit
  Schild slope: 1.18 ± 0.09
[2]; agonist immepip
  Schild slope: 1.09 ± 0.05
[2]; agonist immethridine
  Schild slope: 1.14 ± 0.08
[2]; pKD values, agonist N-α-methylhistamine
  Kd: 5.37 nM
[2]; pKD values, agonist R-α-methylhistamine
  Kd: 5.75 nM
[2]; pKD values, agonist S-α-methylhistamine
  Kd: 5.25 nM
[2]; pKD values, agonist VUF 8430
  Kd: 7.08 nM
[2]; pKD values, agonist histamine
  Kd: 5.13 nM
[2]; pKD values, agonist imetit
  Kd: 5.75 nM
[2]; pKD values, agonist immethridine
  Kd: 3.8 nM
[2]; pKD values, agonist impentamine (first component of the response)
  Kd: 4.17 nM
[2]; pKD values, agonist proxyfan
  Kd: 2.75 nM
[3]; 5 hours incubation with ligand
  inverse agonist response, 3H-cAMP accumulation: 120 ± 1.5 % basal
[3]; 5 hours incubation with ligand, read-out: pEC50, inverse agonist response, 3H-cAMP accumulation (converted)
  EC50: 3.09 nM
